Assay results as given in article PMC3117731, “A systems biology approach to dynamic modeling and inter-subject variability of statin pharmacokinetics in human hepatocytes” (BMC Systems Biology, 2011).
Several values for one entry are separate records, joined by “and”; a condition that tells them apart may be missing. Equal entries are not always repeated. Where two headings read alike, the source gives them in different places.

Legend:
PON enzymes = assay: PON mediated lactone hydrolysis, rate constants estimated in the optimization procedure; type: in vitro ADME, human; details: nominal value from optimization
From the text: The lactone metabolites are either hydrolyzed chemically to the respective acid metabolites inside (c) or outside (m) the cell, or enzymatically by the contribution of PON enzymes inside the cell. Both reactions are described as first order kinetics(4) [drawing 6]
Therefore, maximal rate constants r max of CYP3A4 hydroxylation and UGT1A3 lactonization were predicted for individual 2 and 3 via the relative abundance approach (equation (11)) using the r max -parameters of individual 1 (Table 3) and the protein concentrations observed on the primary human hepatocytes (Table 4). These parameters were then fixed in the optimization. Further, the rate constants k of PON mediated lactone hydrolysis of individual 2 and 3 were estimated in the optimization procedure.

[1] = tested on: primary human hepatocytes; assay: Apparent (lumped active transport and passive diffusion) import and export in primary human hepatocytes; type: in vitro ADME
From the text: Thus, in the following, mechanisms of active transport and passive diffusion are lumped, resulting in the apparent transport rate for import,(12) [drawing 22]
and in the apparent transport rate for export(13) [drawing 23]
described by the product of apparent rate constant κ im/ex of import or export and extra- or intracellular concentration [drawing 24] , respectively (Figure 3). Consequently, the rate constants κ of import and export are set individually, and were to be estimated in the optimization procedure.

[2] = set-up: method as in PMID 8272408; details: estimated from experimental observations; assumed to be same for ASLpOH and ASLoOH; cited from earlier work
CYP3A4 = CYP3A4 (Homo sapiens, UniProt P08684)
[3] = tested on: primary human hepatocytes; assay: Time-series experiment of atorvastatin biotransformation in primary human hepatocytes (extra- and intracellular metabolites by LC-MS-MS, model fit); type: in vitro ADME; details: individual 1; 10 μM AS
Protocol: Hepatocytes were cultured on collagen gel precoated 6-well plates at a density of 1.5·10^6 cells/well. Cells were allowed to attach to the collagen layer. After transport, culture media was disposed and attached cells were cultured 24 h at 37°C in a humidified chamber with 95%/5% air/CO2 in serum-free medium WME, supplemented with albumin (0.1% (v/v)), penicillin/streptomycin (100 U/ml), stabilized L-glutamine (2 mM), dexamethasone dihydrogenphosphate (0.025% (v/v)) and ITS-X (5 mg insulin, 3.35 μg natrium-selenit, 2.75 mg transferrin and 1 mg ethanolamine), further named SFM.
At specified time-points, three wells were further treated for the preparation of samples for the measurement of extracellular and intracellular metabolites, respectively. SFM media was collected and 50 μL formic acid and deuterated internal standard was added for the further measurement of extracellular metabolites. Cells were harvested in pre-cooled albumin-free SFM, disrupted by freeze/thaw and ultra-sonification and centrifuged. The supernatant was used for the determination of intracellular metabolites.
MS-MS analysis was performed on an Esquire HCT ultra ion trap mass spectrometer (Bruker Daltonics, Bremen, Germany) coupled to an HPLC 1100-System (Agilent, Waldbronn, Germany) consisting of binary pump G1312A, degasser G1379A, well-plate sampler G1367A and column thermostat G1330B. […] The following parameters were applied: nebulizer 45 psi, dry gas 10 l/min, dry temperature 300°C, capillary 4100 V, scan range 200 - 600 m/z.

[4] = Individual 1, nominal value from optimization
[5] = Individual 2, nominal value from optimization
[6] = Individual 3, nominal value from optimization
[7] = Individual 1, nominal value from optimization, per ml intracellular volume
[8] = Individual 2, predicted via relative abundance approach from individual 1 and CYP3A4 protein concentration

CYP3A4, sequence (P08684 2-503 limits assumed): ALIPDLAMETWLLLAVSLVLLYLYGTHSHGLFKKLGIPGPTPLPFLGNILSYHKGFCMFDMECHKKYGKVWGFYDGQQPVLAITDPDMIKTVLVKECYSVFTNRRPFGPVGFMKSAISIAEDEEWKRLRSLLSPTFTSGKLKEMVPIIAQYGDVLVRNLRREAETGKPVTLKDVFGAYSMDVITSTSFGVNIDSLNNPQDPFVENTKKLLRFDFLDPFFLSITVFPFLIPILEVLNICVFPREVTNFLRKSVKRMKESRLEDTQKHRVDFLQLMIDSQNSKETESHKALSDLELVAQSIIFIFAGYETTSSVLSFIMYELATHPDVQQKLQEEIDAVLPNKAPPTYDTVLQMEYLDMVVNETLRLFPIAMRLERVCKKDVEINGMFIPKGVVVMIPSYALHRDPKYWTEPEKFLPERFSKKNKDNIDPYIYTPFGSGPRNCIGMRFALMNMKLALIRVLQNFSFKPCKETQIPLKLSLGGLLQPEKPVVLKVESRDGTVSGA

Compound | κPON (rate constant of PON mediated lactone hydrolysis) (PON enzymes; Individual 1) | κPON (rate constant of PON mediated lactone hydrolysis) (PON enzymes; Individual 2) | κPON (rate constant of PON mediated lactone hydrolysis) (PON enzymes; Individual 3) | κex (apparent rate constant of export) [1, 4] | κim (apparent rate constant of import) [1, 4] | κex (apparent rate constant of export) [1, 5] | κim (apparent rate constant of import) [1, 5] | κex (apparent rate constant of export) [1, 6] | κim (apparent rate constant of import) [1, 6] | kCR (rate constant of spontaneous hydrolysis of the lactone) [2] | rmax,3A4 (maximal rate of CYP3A4 hydroxylation to the labelled metabolite) (CYP3A4; [7]) | rmax,3A4 (maximal rate of CYP3A4 hydroxylation to the labelled metabolite) (CYP3A4; [8]) | ratio of intracellular AUC 0-600 min to extracellular AUC 0-600 min [3] | ratio of intracellular c max to extracellular c max [3]
CC(C)c1c(C(=O)Nc2ccccc2)c(-c2ccccc2)c(-c2ccc(F)cc2)n1CC[C@@H]1C[C@@H](O)CC(=O)O1 [ASL, atorvastatin lactone] | 308 10^-3 min^-1 | 99.2 10^-3 min^-1 | 0.00 10^-3 min^-1 | 21.8 µL/min | 275 µL/min | 2.48 µL/min | 25.8 µL/min | 10.5 µL/min | 82.7 µL/min | 0.0025 min⁻¹ | – | – | – | –
CC(C)c1c(C(=O)Nc2ccccc2O)c(-c2ccccc2)c(-c2ccc(F)cc2)n1CC[C@@H]1C[C@@H](O)CC(=O)O1 [ASLoOH, ortho-hydroxy-atorvastatin lactone] | – | – | – | 2.67 µL/min | 26.1 µL/min | 86.3 µL/min | 530 µL/min | 0.77 µL/min | 2.43 µL/min | – | 2756 pmol/min/mL | 1640 pmol/min/mL | – | –
CC(C)c1c(C(=O)Nc2ccc(O)cc2)c(-c2ccccc2)c(-c2ccc(F)cc2)n1CC[C@@H]1C[C@@H](O)CC(=O)O1 [ASLpOH, para-hydroxy-atorvastatin lactone] | – | – | – | 1.13 µL/min and 33.7 µL/min | – | 1.01 µL/min and 7.24 µL/min | – | 0.59 µL/min and 8.59 µL/min | – | – | 1228 pmol/min/mL | 731 pmol/min/mL | 38.2 | 34.5
CC(C)c1c(C(=O)Nc2ccccc2O)c(-c2ccccc2)c(-c2ccc(F)cc2)n1CCC(O)CC(O)CC(=O)O (stereo not shown) [ASoOH, ortho-hydroxy-atorvastatin acid] | – | – | – | 1.60 µL/min | 0.39 µL/min | 3.62 µL/min | 0.22 µL/min | 0.91 µL/min | 0.00 µL/min | – | 3345 pmol/min/mL | 1991 pmol/min/mL | 4.5 | 2.5
CC(C)c1c(C(=O)Nc2ccc(O)cc2)c(-c2ccccc2)c(-c2ccc(F)cc2)n1CC[C@@H](O)C[C@@H](O)CC(=O)O [ASpOH, para-hydroxy-atorvastatin acid] | – | – | – | 0.80 µL/min | 3.96 µL/min | 1.25 µL/min | 2.01 µL/min | 0.52 µL/min | 2.53 µL/min | – | 1108 pmol/min/mL | 660 pmol/min/mL | – | –
hydroxy-atorvastatin lactones (para- and ortho-) [ASLOH] | 280 10^-3 min^-1 | 545 10^-3 min^-1 | 82.9 10^-3 min^-1 | – | – | – | – | – | – | – | – | – | – | –
